The test system of one data set is p21. The data set can be described thus: p21 expression in MF patient cells. The data set is classed as cell-based, human. The settings on record: single agent alone.
Data set [1] relates to treatment-naïve patients with MF. The data set can be described thus: KRT-232-114 Phase 2 open-label study, navtemadlin monotherapy. To be noted: Rux-naïve MF, 240 mg Days 1-7 of 28-day cycle. Format: in vivo, human. The procedure:
KRT-232-114 was a Phase 2 open-label study in which the safety and efficacy of navtemadlin monotherapy was assessed in treatment-naïve patients with MF. […] Median treatment duration was 183.0 days (range, 7-539).

For data set [2], the system named is subjects with MF who were relapsed or refractory to JAK inhibitor treatment. The data set can be described thus: KRT-232-101A Phase 2 open-label dose-finding study, navtemadlin monotherapy. Format: in vivo, human. To be noted: for TSS50 at Week 24 by MFSAF v4.0 (proportion of subjects) / SVR35 at Week 24 by Central Review (proportion of subjects): Rux-relapsed/refractory MF; for TSS50 at Week 24 by MFSAF v4.0 (proportion of subjects): n = 14; for SVR35 at Week 24 by Central Review (proportion of subjects): n = 14 with ruxolitinib washout ≥28 days; for circulating CD34+ cells: single agent. The method, then: KRT-232-101A is a Phase 2 open-label, dose-finding study designed to evaluate the safety and efficacy of navtemadlin in subjects with MF who were relapsed or refractory to JAK inhibitor treatment. Subjects were treated with one of four dosing schedules to determine the optimal Phase 2 dose and schedule: navtemadlin 120 mg QD for Days 1-7 on a […]; navtemadlin 240 mg QD for Days 1-7 on a 21-day cycle; navtemadlin 240 mg QD for Days 1-7 on a 28-day cycle; or navtemadlin 240 mg QD for Days 1-5 on a 28-day cycle.
Fourteen (14) of these subjects had ruxolitinib washout of ≥28 days prior to the baseline imaging assessment; efficacy results are reported for this subset of patients to control for the effects on the spleen after ruxolitinib discontinuation prior to Cycle 1 Day 1. Median treatment duration for all 32 subjects was 175.5 days (range, 2-469).

Data set [3] concerns xenograft models, tumor types harboring TP53WT. The data set can be described thus: Non-clinical xenograft models. The data set is classed as in vivo. To be noted: various genetic backgrounds. From the text: (§1) Preclinical studies conducted with navtemadlin have yielded promising results in in vitro, ex vivo, and in vivo experiments, representing solid tumors and hematologic malignancies, including MF and acute myeloid leukemia secondary to an MPN.

Another data set deals with p21 mRNA. The data set is described as follows: p53 pathway activation, non-clinical pharmacology. The settings on record: direct transcriptional target of p53.
Source text: as §1

Data set [4] is described as follows: Standard panel of assays: mutagenicity, genotoxicity, phototoxicity. From the text:
Repeat-dose toxicity studies of up to 13 weeks duration in rats and monkeys, along with in vitro and in vivo safety pharmacology studies, have been completed for navtemadlin. […] Nonclinical embryofetal toxicity and fertility studies have not been conducted for navtemadlin due to the well documented requirement for p53/MDM2 control during embryonic and fetal development. Based on its mechanism of action, navtemadlin alters cell proliferation and is expected to result in adverse effects on embryofetal viability and development.

The subject of data set [5] is JAKi-naive MF patients with a suboptimal response to ruxolitinib. The data set is described as follows: Pooled published phase 3 data, suboptimal responders to ruxolitinib. Format: in vivo, human. An excerpt: Data was pooled from published phase 3 studies for patients treated with ruxolitinib in the JAKi-naive MF setting (Verstovsek 2012; Mesa 2017; Pemmaraju 2023; Rampal 2023) to understand the natural history of patients with MF who achieve a suboptimal response to ruxolitinib, as defined in Study KRT-232-115 (e.g., a subject with an SVR>0% but <35% and a TSS reduction >0% but <50%) (FIG. 12).
FIG. 12 illustrates suboptimal spleen and symptom responders from the pooled phase 3 ruxolitinib data, including patients treated with ruxolitinib monotherapy with and without placebo. SVR data was obtained for 465 subjects from the three studies COMFORT-1, […]-1, and TRANSFORM-1 (Verstovsek 2012; Mesa 2017; Pemmaraju 2023). TSS data was obtained for 528 subjects from the three studies. Week-24 data used as a proxy to Week-18 suboptimal response assessment.

The next data set relates to MF patients. The settings on record: cited from earlier work.
Data set [6] concerns patients who discontinue ruxolitinib. The settings on record: after discontinuing ruxolitinib; 95% CI 8.0-22.7; cited from earlier work.
Data set [7] has as its system ruxolitinib-treated patients with myelofibrosis. The settings on record: cited from earlier work.
Where [8] appears, read: KRT-232-101A, 240 mg Days 1-7 of 28-day cycle.
The mark [9] stands for this setting: KRT-232-101A, 240 mg Days 1-7 of 28-day cycle, listed as Navtemadlin.
Setting [10] is: within the first 1-2 years of treatment.

“Also recorded” adds a separate entry of the source. Like-named read-outs stand apart in the source and are kept apart here.

On to `CC(C)[C@@H](CS(=O)(=O)C(C)C)N1C(=O)[C@@](C)(CC(=O)O)C[C@H](c2cccc(Cl)c2)[C@H]1c1ccc(Cl)cc1` [navtemadlin, 2-((3R,5R,6S)-5-(3-chlorophenyl)-6-(4-chlorophenyl)-1-((S)-1-(isopropylsulfonyl)-3-methylbutan-2-yl)-3-methyl-2-oxopiperidin-3-yl) acetic acid], for which the p21 expression entry with p21 is on record as “markedly increased”. Also, the “SVR35 at Week 24 by Central Review (proportion of subjects)” value was 14.3% in data set [1] (n = 14); 14.3% (2/14) in data set [1] (n = 14, listed as Navtemadlin); 14.3% in [2] (setting [8]); 14.3% (2/14) in [2] (setting [9]). Further, the “TSS50 at Week 24 by MFSAF v4.0 (proportion of subjects)” value in data set [1] (n = 14) is 28.6%; in data set [1] (n = 14, listed as Navtemadlin), 28.6% (4/14); in data set [2] (setting [8]), 14.3%; in [2] (setting [9]) it was 14.3% (2/14). Also, the “median reduction in circulating CD34+ cells” value in data set [2] (baseline Cycle 1 Day 1 to Week 24, 240 mg Days 1-7 of 28-day cycle) is 89.02%. Further, the “subjects with improvement in fibrosis grade” value in data set [2] (baseline to Week 24, all evaluable subjects (12/44)) was 27.3%. For the same molecule, in data set [2] (pharmacodynamic analysis, KRT-232-101A), the “driver gene VAF” value is “VAF reductions”. Also, the “circulating CD34+ cells” value in data set [2] (KRT-232-101A) is “robustly decreased; also recorded: reduced”; in data set [2] (KRT-232-101A, listed as Navtemadlin), “decreased”. For the same molecule, in data set [3], the tumor growth entry is “dose-dependent reduction”. Besides, the “p21 mRNA” value with p21 mRNA was “increases”. Also, in data set [4], the mutagenicity / genotoxicity entry is “not mutagenic or genotoxic”. The potential for phototoxicity entry in data set [4] is listed as “negligible potential”.
Regarding `N#CC[C@H](C1CCCC1)n1cc(-c2ncnc3[nH]ccc23)cn1` [ruxolitinib, (R)-3-(4-(7H-pyrrolo[2,3-d]pyrimidin-4-yl)-1H-pyrazol-1-yl)-3-cyclopentylpropanenitrile], in the data set on p21, the p21 expression result is “did not”. Also, in data set [5] (suboptimal spleen responders, N=253, Week-24 data as proxy for Week 18), the “mean SVR” value was 18%. In data set [5] (suboptimal symptom responders (>0% but <50%)), the “mean TSS reduction” value was determined as 28.5%. Further, the “time after initiating treatment by which benefit in SVR and TSS reduction is achieved, then plateau” value with MF patients (Verstovsek 2012) is not above 12 weeks. In addition, in the data set with MF patients (ruxolitinib monotherapy), the “MF patients with TSS reduction of greater than or equal to 50%” value is listed as “approximately 46%”; the “responding patients achieving both SVR ≥35% and TSS ≥50%” value is 20-25%. Besides, in the data set with MF patients (setting [10]), the “effect on bone marrow fibrosis” value is “does not significantly affect” and the “effect on variant allele frequency (VAF) of driver mutations” value was “does not significantly affect”. In addition, the “median OS” value in data set [6] was 13.2 months. For the same molecule, the “hazard ratio for survival” value in [7] (patients with SVR≥25% to <35% versus SVR<10%, 95% CI 0.11-0.61) is 0.25. Besides, the “reduction in risk of death” value in data set [7] (patients with SVR≥25% to <35% versus SVR<10%) is on record as 75%. The “hazard ratio for survival” value in data set [7] (patients with SVR≥35% to <50%, 95% CI 0.11-0.56) was 0.24.

The record behind these values is US20260263471A1, “Methods of Treating Myelofibrosis” (Kartos Therapeutics, Inc., priority 2024, published 2026).
